From patent publication US11622946B2, “Uses of a carotenoid in the treatment or prevention of stress induced conditions” (GREENALTECH, S.L., priority 2016, dated 2023)
Where two headings read alike, the source gives them in different places.

Columns and labels:
[1] = system: triple negative breast adenocarcinoma cell line MDA-MB-231; test: Cytotoxicity by the MTT method; settings: MDA-MB-231, 72 h, read-out: EC50 (cytotoxic effect)
Procedure: For that purpose the cytotoxic effects (EC50) of fucoxanthin (063-06691, Wako Chemicals) alone and combined with paclitaxel (T1912, Sigma-Aldrich) on the triple negative breast adenocarcinoma cell line MDA-MB-231 (ECACC: 92020424) were assessed.
In a first setup, MDA-MB-231 cells were seeded in 96 well plates with 100 μL of DMEM +10% FBS and incubated at 37° C., 5% CO2 and 90% humidity. After 24 hours, with a confluence and viability of between 80 and 90% as assessed by trypan blue test, cells were treated with serial dilutions (1:3) in DMEM+10% FBS of fucoxanthin solubilized in DMSO ranging from 100 μM to 15.2 nM.
In a second setup, MDA-MB-231 cells were seeded in 96 well plates with 100 μL of DMEM +10% FBS and incubated at 37° C., 5% CO2 and 90% humidity. After 24 hours, with a confluence and viability of between 80 and 90% as assessed by trypan blue test, cells were treated with serial dilutions (1:3) of paclitaxel in DMEM+10% FBS ranging from 1 μM to 0.15 nM or with both the same concentrations of paclitaxel plus a fixed subtoxic concentration of fucoxanthin (1 μM) solubilized in DMSO (100 μM).

[2] = molecular target: T1, human Gluocorticoid receptor (GR) (Homo sapiens, UniProt P04150); test: GR antagonist assay (GeneBLAzer beta-lactamase reporter, GR-UAS-bla HEK 293T cells, dexamethasone as agonist); type: cell-based; settings: for antagonist effect on GR (in words) / GR inhibition: against dexamethasone; for GR inhibition: at 10 μM
T1 construct: expressed in transfected cells; host or cells: GeneBLAzer UAS-bla HEK 293T
T1 sequence (P04150 524-758 limits assumed): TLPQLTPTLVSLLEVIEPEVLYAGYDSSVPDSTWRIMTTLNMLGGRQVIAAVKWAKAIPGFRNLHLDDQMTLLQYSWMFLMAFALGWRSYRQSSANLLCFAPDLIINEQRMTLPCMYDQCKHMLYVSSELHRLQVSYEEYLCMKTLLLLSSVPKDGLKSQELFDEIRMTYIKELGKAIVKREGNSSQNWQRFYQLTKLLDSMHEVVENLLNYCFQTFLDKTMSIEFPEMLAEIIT
Procedure: An antagonist assay for GR was performed.
These cells stably express a beta-lactamase reporter gene under the transcriptional control of an upstream activator sequence (UAS). When an agonist binds to the LBD of the GAL4 (DBD)-GR (LBD) fusion protein, the protein binds to the UAS, resulting in expression of beta-lactamase.
32 μL of cell suspension is added to the wells and pre-incubated at 37° C./5% CO2 in a humidified incubator with compounds and control antagonist titration for 30 minutes. 4 μL of 10× control agonist. Dexamethasone at the pre-determined EC80 concentration is added to wells containing the control antagonist or compounds. The plate is incubated for 16-24 hours at 37° C./5% CO2 in a humidified incubator. 8 μL of 1 μM Substrate Loading Solution is added to each well and the plate is incubated for 2 hours at room temperature. The plate is read on a fluorescence plate reader.

[3] = system: HaCat cell line; test: Hydrocortisone-induced DNA damage assay (HCS DNA Damage kit, phosphorylated H2AX); type: cell-based, human; settings: compounds at 0.1 μM, 1 h before 10 μM hydrocortisone
Procedure: HaCat cell line, a spontaneously transformed aneuploid immortal keratinocyte cell line from adult human skin was used. Keratinocytes were cultured in DMEM medium supplemented with 10% FCS. […] Assays were performed with cells between 80% and 90% of confluence and with a cell viability above 90% (tested by trypan blue staining). 20000 cells per experimental condition were seeded in 24 well plates with 1 mL of medium for 24 h. Culture medium was substituted for not supplemented DMEM and after a 24 hour incubation, compounds were added at 0.1 μM to assay wells. […] Plate was incubated for 30 min before the DNA extraction. DNA damage was quantified using the HCS DNA Damage kit (ThermoFisher®). “The HCS DNA Damage kit simultaneously and quantitatively measures two important cell-health parameters: DNA damage and cytotoxicity. DNA damage is detected using an antibody against phosphorylated H2AX (Ser139) which is induced in response to double-strand break (DSB) formation”. Plate was read using Fluoroscan at 355-460 nm for Hoechst (cell number) and 485-538 nm for the secondary antibody (DNA damage). Background is subtracted and relativized with values obtained from Hoechst staining in order to obtain the value of DNA damage relative to the cell count of each well. Results were normalized using the basal values.

[4] = molecular target: T2, progesterone receptors (PR) (Homo sapiens, UniProt P06401); test: PR antagonist assay (GeneBLAzer beta-lactamase reporter, UAS-bla HEK 293T cells, R5020 as agonist); type: cell-based; settings: for antagonist action on PR (in words): against promegestone (R5020)
T2 sequence (P06401 679-933 limits assumed): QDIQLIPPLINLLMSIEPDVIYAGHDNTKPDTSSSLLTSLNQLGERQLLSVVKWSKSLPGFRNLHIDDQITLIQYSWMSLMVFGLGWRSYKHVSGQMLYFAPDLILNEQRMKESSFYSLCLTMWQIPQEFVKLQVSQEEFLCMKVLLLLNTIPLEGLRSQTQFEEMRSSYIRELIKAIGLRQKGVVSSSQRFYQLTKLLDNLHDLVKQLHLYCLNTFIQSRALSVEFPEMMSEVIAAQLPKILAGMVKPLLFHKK
Procedure: An antagonist assay for PR was performed. In this assay, an engineered cell line (UAS-bla HEK 293T) expressing PR is used to test the action of two xanthophylls. The detection method consists in GeneBLAzer® technology, based on mammalian-optimized Beta-lactamase reporter gene (bla) combined with a FRET-enabled substrate.
In FIG. 7, neoxanthin and fucoxanthin were tested against the agonist promegestone (R5020).

[5] = system: p53 in HaCat keratinocytes; test: p53 quantification by ELISA after hydrocortisone (Human Total p53 DuoSet IC ELISA); type: cell-based; settings: compounds at 0.1 and 1 μM, 1 h before 10 μM hydrocortisone, 2 h
Procedure: HaCat keratinocytes were cultured in DMEM medium supplemented with 10% FCS. […] Assays were performed with cells between 80% and 90% of confluence and with a cell viability above 90% (tested by trypan blue staining). 20000 cells per experimental condition were seeded in 24 well plates with 1 mL of medium for 24h. Culture medium was substituted for not supplemented DMEM and after a 24 hour incubation, compounds were added at 0.1 and 1 μM to assay wells. […] Cells were lysed in 100 μL of lysis buffer and 5 μg of total cell extract were used for the quantitative ELISA. Optical density was measured at 450 nm and background was subtracted.

Molecule	antagonist effect on GR (in words) [2]	protection of DNA from hydrocortisone-induced damage (in words) [3]	GR inhibition [2]	antagonist action on PR (in words) [4]	p53 expression in the presence of hydrocortisone (in words) [5]	also measured
CC(=O)O[C@H]1C(=O)[C@@]2(C)[C@H]([C@H](OC(=O)c3ccccc3)[C@]3(O)C[C@H](OC(=O)[C@H](O)[C@@H](NC(=O)c4ccccc4)c4ccccc4)C(C)=C1C3(C)C)[C@]1(OC(C)=O)CO[C@@H]1C[C@@H]2O [paclitaxel, reference compound]						EC50 ([1]; Homo sapiens): 0.0044 µM
CC1=C(/C=C/C(C)=C/C=C/C(C)=C/C=C/C=C(C)/C=C/C=C(C)/C=C/C2=C(C)CCCC2(C)C)C(C)(C)CCC1 [beta-carotene]	neither compounds exercise an antagonist effect on GR					
fucoxanthin	parcial antagonist	capable of protecting DNA	50%	None of them showed an important antagonist action	increase p53 expression	concentration from which compound acts as GR antagonist ([2]; against dexamethasone (FIG. 5)): 30 nM; EC50 ([1]; MTT, fucoxanthin alone): 7.46 µM; PR inhibition ([4]; at the highest concentration tested, against R5020): 30%
CC(=C/C=C/C(C)=C/C=C/C=C(C)/C=C/C=C(\C)C=C=C1C(C)(C)C[C@H](O)C[C@@]1(C)O)/C=C/[C@@]12O[C@]1(C)C[C@@H](O)CC2(C)C [neoxanthin]	total antagonist	capable of protecting DNA	above 85%	None of them showed an important antagonist action	increase p53 expression	
C\C(C=C=C1C(C)(C)C[C@H](O)C[C@@]1(C)O)=C/C=C/C(C)=C/C=C/C=C(C)/C=C/C=C(\C)C(=O)/C=C1\C(C)(C)C[C@H](O)C[C@@]1(C)O [iso-fucoxanthinol]						maximum GR inhibition ([2]; at 10 mM (so in the source), against dexamethasone (FIG. 6)): 80%
CC1=C(/C=C/C(C)=C/C=C/C(C)=C/C=C/C=C(C)/C=C/C=C(C)/C=C/C2=C(C)C(=O)[C@@H](O)CC2(C)C)C(C)(C)C[C@H](O)C1=O [astaxanthin]	neither compounds exercise an antagonist effect on GR					
